The text below walks through data of patent publication US20250367166A1, “NEXT GENERATION DIPROVOCIMS THAT ACTIVATE THE INNATE AND ADAPTIVE IMMUNE RESPONSE” (The Scripps Research Institute, priority 2022, published 2025).

The target of data set [1] is T1, TLR1/TLR2 (Mus musculus, UniProt Q9EPQ1+Q9QUN7). Particulars: cited from earlier work.
The target in data set [2] is T2, TLR1/TLR2 (Homo sapiens, UniProt O60603+Q15399). Particulars: table of b113, in parentheses; cited from earlier work.
Data set [3] concerns SIINFEKL-loaded C57BL/6J splenocytes. Description: In vivo CTL assay after i.m. immunization with OVA plus diprovocim. Details: species or system C57BL/6J mice. Particulars: 200 μg diprovocim + 100 μg OVA, 9 days after initial immunization and 9 days after boost. Here is the method:
(§1) Mice were injected i.m. on day 0 and day 28 (FIG. 1) with 100 μg OVA alone, or 100 μg OVA mixed with vehicle (DMSO:Tween 80:saline=1:1:8), or mixed with 200 μg diprovocim-1 (TNF-α 1) or diprovocim-X (TNF-α 35) per mouse. EndoFit ovalbumin (OVA) with >98% purity minimum (SDS-PAGE) and endotoxin levels <1 EU/mg was purchased from Invivogen.
On day 9 and day 37 (FIG. 1), naive C57BL/6J mice were killed, and splenocytes were collected. […] The unpulsed and peptide-pulsed cells were labeled, respectively, with […] (“low”) or […] (“high”) CellTrace Violet (Invitrogen) in serum-free medium for 20 min. Equal numbers (2×10^6) of CellTrace Violet^high (OVA pulsed) and CellTrace Violet^low (unpulsed) cells were mixed together and injected intravenously into the immunized mice.
After 48 h, blood from treated mice was collected and subjected to flow cytometry analysis. The numbers of remaining live CellTrace Violet^high and CellTrace Violet^low cells were determined and used to calculate the percentage of OVA peptide-pulsed target cells killed. Specific killing was defined as the ratio=CellTrace Violet^low cells/CellTrace Violet^high cells. The percentage of target cell lysis=[1−unimmunized ratio/immunized ratio]×100.

The conditions of data set [4]: background; cited from earlier work.
Data set [5] concerns B16-OVA melanoma. Put plainly: Tumor growth assay, B16-OVA melanoma in immunized mice. It counts as in vivo, C57BL/6J mice. Particulars: inoculation 10 days after the second challenge; anti-mPD-L1 i.p. Here is the method:
as §1
B16-OVA cells (B16F10 melanoma cells stably expressing chicken ovalbumin) were grown in DMEM containing 10% vol/vol FBS. On day 38 (FIG. 1), a total of 2×10^5 B16-OVA cells in 100 μL PBS were injected s.c. into the right flank of 17 week-old male C57BL/6J mice to establish tumors. On days 41, 44, and 47, the mice were injected i.p. with 200 μg checkpoint inhibitor (anti-mPD-L1, BioXcell) in 100 μL saline. Tumors were measured with a digital caliper (Fisher) and the tumor sizes were calculated using the following formula: volume=0.5×length×width^2. Mice were sacrificed when the tumor length or width reached 2 cm.

Data set [6] has as its system B16-OVA melanoma. Particulars: background; diprovocim/OVA i.m.; cited from earlier work.
The subject of data set [7] is OVA-specific IgG, IgG1, or IgG2b. Put plainly: Antibody response assay: serum OVA-specific IgG, IgG1, IgG2b by ELISA. Particulars: 14 days after a single immunization, with OVA. It counts as in vivo, C57BL/6J mice. Here is the method: as §1
On day 14 (FIG. 1), serum titers of OVA-specific IgG, IgG1, or IgG2b (SouthernBiotech) were measured by ELISA. Nunc MaxiSorp flat-bottom 96-well microplates (Thermo Fisher Scientific) were coated with 5 μg/mL soluble OVA (Invivogen) and incubated at 4° C. overnight (ca. 18 h). Plates were washed four times with washing buffer (0.05% [vol/vol] Tween-20 in PBS), then blocked with 1% (vol/vol) BSA in PBS for 1 h at room temperature. Serum samples diluted in 1% (vol/vol) BSA were added to the prepared plates and incubated for 2 h. The plates were washed eight times with washing buffer and then incubated with HRP-conjugated goat anti-mouse IgG, IgG1, or IgG2b for 1 h at room temperature. Plates were washed eight times with washing buffer, then developed with SureBlue TMB Microwell Peroxidase Substrate and TMB Stop Solution (KPL). Absorbance was measured at 450 nm on a Synergy Neo2 Plate Reader (BioTek).
In general terms: An ELISA detects its analyte on a solid surface through an enzyme-linked reagent.

A short description of data set [8]: In vivo adjuvant activity, i.m. co-administration with ovalbumin. Particulars: for adjuvant activity in mice (CD4- and CD-8-dependent responses): with OVA, i.m. Here is the method: C57BL/6J mice were purchased from The Jackson Laboratory. All study procedures using mice were approved by the Institutional Animal Care and Use Committee (IACUC) of the University of Texas Southwestern Medical Center and were conducted in accordance with institutionally approved protocols and guidelines for animal care and use. All the mice were maintained at the University of Texas Southwestern Medical Center in accordance with institutionally approved protocols.
EndoFit ovalbumin (OVA) with >98% purity minimum (SDS-PAGE) and endotoxin levels <1 EU/mg was purchased from Invivogen.

For data set [9], the target named is T1, TLR1/TLR2. Description: TNF-α release from thioglycolate-elicited mouse peritoneal macrophages (ELISA). Particulars: for EC50: read-out: EC50 (nM) (mouse): EC50 TNF-α release from mouse macrophages.
Data set [10] concerns the target T2, TLR1/TLR2. Description: TNF-α release from PMA-differentiated human THP-1 cells (ELISA).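 As to all read-outs here: cells exposed to graded compound concentrations for 4 h, TNF-α quantified in supernatant, LPS as positive and DMSO as negative control, values are duplicate means.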 Particulars: for EC50: read-out: EC50 (nM) (THP-1): EC50 TNF-α release from human THP-1 cells.

pEC50: −log10 of the molar value. Read-outs that look alike come from different tables or passages of the source.

T1 sequence (Q9EPQ1 26-795): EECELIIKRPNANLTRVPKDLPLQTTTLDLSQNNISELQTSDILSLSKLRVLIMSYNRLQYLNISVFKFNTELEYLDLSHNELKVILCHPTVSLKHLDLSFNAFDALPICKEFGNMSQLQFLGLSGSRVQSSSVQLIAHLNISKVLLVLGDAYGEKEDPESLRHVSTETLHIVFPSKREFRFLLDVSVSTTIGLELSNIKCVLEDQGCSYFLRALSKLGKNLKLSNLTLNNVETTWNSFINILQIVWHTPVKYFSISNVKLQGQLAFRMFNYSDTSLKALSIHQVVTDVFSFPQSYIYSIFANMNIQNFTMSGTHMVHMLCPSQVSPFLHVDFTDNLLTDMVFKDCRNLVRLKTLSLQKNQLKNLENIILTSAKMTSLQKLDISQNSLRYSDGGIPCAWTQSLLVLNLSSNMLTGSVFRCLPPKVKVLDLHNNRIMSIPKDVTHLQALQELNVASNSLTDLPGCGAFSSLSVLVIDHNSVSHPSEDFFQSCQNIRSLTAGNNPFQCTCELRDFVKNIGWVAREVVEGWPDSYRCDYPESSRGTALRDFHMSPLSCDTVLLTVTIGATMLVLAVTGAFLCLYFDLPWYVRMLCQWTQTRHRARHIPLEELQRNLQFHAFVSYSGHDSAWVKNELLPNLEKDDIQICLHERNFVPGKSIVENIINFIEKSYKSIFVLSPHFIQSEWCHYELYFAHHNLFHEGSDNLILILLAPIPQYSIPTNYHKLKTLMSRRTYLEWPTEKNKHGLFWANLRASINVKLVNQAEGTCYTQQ
T1 sequence (Q9QUN7 25-784): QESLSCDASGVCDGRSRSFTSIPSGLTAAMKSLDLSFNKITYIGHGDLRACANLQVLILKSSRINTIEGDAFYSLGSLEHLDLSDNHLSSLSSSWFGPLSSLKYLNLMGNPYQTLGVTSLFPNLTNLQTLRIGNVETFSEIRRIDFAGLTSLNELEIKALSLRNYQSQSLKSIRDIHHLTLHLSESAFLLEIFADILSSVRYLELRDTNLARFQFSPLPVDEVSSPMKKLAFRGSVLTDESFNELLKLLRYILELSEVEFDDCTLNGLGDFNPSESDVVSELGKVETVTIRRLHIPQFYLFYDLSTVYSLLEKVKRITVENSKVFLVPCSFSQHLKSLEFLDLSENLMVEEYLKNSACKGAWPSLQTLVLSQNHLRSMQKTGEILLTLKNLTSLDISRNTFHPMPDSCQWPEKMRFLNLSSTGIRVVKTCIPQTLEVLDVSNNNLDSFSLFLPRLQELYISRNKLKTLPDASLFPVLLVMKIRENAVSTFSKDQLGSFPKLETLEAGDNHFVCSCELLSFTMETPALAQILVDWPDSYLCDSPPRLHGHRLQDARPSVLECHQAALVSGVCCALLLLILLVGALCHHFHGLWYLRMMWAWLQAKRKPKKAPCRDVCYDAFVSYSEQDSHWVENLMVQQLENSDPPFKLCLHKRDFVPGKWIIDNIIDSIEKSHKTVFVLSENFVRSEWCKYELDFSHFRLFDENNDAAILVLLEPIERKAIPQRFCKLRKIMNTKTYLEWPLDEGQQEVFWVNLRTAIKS
T2 sequence (Q15399 25-786): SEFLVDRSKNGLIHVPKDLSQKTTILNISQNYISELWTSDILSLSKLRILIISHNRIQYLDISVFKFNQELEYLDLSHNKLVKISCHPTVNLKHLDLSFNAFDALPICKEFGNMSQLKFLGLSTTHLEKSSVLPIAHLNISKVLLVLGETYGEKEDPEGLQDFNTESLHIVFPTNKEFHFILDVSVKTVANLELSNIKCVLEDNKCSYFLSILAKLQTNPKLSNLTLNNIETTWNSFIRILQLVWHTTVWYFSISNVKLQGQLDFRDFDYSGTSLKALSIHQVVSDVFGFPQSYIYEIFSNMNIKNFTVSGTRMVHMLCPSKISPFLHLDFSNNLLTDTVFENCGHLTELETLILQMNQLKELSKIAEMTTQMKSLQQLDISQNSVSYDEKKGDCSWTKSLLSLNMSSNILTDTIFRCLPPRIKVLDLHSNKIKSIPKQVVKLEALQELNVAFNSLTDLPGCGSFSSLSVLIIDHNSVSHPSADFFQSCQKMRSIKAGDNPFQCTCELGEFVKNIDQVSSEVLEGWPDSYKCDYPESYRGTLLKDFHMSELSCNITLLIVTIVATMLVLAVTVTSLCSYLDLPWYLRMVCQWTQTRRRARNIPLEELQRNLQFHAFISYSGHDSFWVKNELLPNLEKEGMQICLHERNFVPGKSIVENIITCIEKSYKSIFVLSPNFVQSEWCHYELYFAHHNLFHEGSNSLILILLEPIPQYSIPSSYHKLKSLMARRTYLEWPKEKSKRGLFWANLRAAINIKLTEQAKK
T2 sequence (O60603 21-784): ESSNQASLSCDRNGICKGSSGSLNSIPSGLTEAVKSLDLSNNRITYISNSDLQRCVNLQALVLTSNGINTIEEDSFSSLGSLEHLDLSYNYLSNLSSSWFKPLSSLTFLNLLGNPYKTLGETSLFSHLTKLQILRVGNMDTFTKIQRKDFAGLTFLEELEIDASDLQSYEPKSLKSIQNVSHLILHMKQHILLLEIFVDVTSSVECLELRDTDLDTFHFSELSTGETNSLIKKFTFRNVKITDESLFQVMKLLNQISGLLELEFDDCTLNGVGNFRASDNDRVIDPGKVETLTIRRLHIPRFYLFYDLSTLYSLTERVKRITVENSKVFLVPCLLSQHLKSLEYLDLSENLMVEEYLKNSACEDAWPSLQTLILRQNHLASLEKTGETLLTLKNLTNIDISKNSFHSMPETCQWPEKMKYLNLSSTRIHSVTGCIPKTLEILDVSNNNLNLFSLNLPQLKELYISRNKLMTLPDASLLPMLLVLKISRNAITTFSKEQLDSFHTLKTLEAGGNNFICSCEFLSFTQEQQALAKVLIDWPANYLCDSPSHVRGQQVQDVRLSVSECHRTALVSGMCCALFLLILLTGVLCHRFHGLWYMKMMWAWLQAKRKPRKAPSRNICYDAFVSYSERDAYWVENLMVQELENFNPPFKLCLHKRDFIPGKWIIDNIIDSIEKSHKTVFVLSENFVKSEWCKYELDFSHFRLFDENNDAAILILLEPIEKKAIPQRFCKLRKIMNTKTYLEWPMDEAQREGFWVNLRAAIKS

For the compound `O=C(N[C@H]1C[C@@H]1c1ccccc1)[C@@H]1CN(C(=O)c2ccc(C(=O)N3C[C@@H](C(=O)N[C@H]4C[C@@H]4c4ccccc4)[C@H](C(=O)N[C@H]4C[C@@H]4c4ccccc4)C3)cc2)C[C@H]1C(=O)N[C@H]1C[C@@H]1c1ccccc1` [Compound 1, reference compound], the “Efficacy (magnitude) of response versus diprovocim-1 (100%), mouse macrophages” value in data set [1] (table of b113, in parentheses) is 100%. Besides, in data set [2], the “Efficacy (magnitude) of response versus diprovocim-1 (100%), THP-1” value (“Efficacy (magnitude) … (100%), THP-1” for short) was 100%. In addition, the “in vivo cytotoxicity against OVA peptide-loaded C57BL/6J splenocytes (CTL, FIG. 2A)” value in data set [3] is reported as “induced strong in vivo cytotoxicity”. Besides, the “adjuvant activity in mice when co-administered i.m. with ovalbumin” value in data set [4] is recorded as “effective adjuvant”. In addition, the “Resistance to B16-OVA melanoma (FIG. 2B)” value in [5] is “notably enhanced”. The “effect of combination with anti-PD-L1 on B16-OVA tumors in mice” value in [6] is listed as “eradicated tumors”. The “OVA-specific circulating antibodies of different subtypes by ELISA (FIGS. 3A-3C)” value in [7] is on record as “strong responses”. For the same compound, the “overt toxicity when used as an adjuvant” value in data set [8] (compared with LPS administration) was “did not display the overt toxicity”. In [8], the “adjuvant activity in mice (CD4- and CD-8-dependent responses)” value is “comparable adjuvant activity”.

As a reminder, the EC50 is the concentration at which the effect is half-maximal. Turning to `O=C(O)[C@@H]1CN(C(=O)c2ccc(C(=O)N3C[C@@H](C(=O)N[C@H]4C[C@@H]4c4ccccc4)[C@H](C(=O)N[C@H]4C[C@@H]4c4ccccc4)C3)cc2)C[C@H]1C(=O)N[C@H]1C[C@@H]1c1ccccc1` [Compound 2], in data set [1] (table of b113, prior observation ref 15, read-out: EC50 (nM) (mouse): EC50 TNF-α release from mouse macrophages), the EC50 was over 5000 nM. The “Efficacy (magnitude) … (100%), THP-1” value in data set [2] was 110%.

What is called pEC50 is the EC50 on a negative log10 scale, so that one unit is a factor of ten. For the compound `CC(C)(C)OC(=O)NCC(=O)OCCCCCCCCCCCCNC(=O)[C@@H]1CN(C(=O)c2ccc(C(=O)N3C[C@@H](C(=O)N[C@H]4C[C@@H]4c4ccccc4)[C@H](C(=O)N[C@H]4C[C@@H]4c4ccccc4)C3)cc2)C[C@H]1C(=O)N[C@H]1C[C@@H]1c1ccccc1` [Compound 35, 12-((3S,4S)-1-(4-((3S,4S)-3,4-Bis(((1S,2R)-2-phenylcyclopropyl)carbamoyl)-pyrrolidine-1-carbonyl)benzoyl)-4-(((1S,2R)-2-phenyl-cyclopropyl)carbamoyl)-pyrrolidine-3-carboxamido)-dodecyl-2-((tert-butoxycarbonyl)-amino)acetate], the “efficacy relative to that of diprovocim-1 in mouse macrophages” value in [9] turned out to be 550%. Also, the “fold more active than diprovocim-1 in mouse macrophages” value in data set [9] was 2 fold. In addition, the “Efficacy (magnitude) of response versus diprovocim-1 (100%), mouse macrophages” value in [9] (Table 3, in parentheses) is 550%; in data set [9] (Table 5, in parentheses), 550%; in data set [9] (Table 6, in parentheses), 550%. The EC50 in data set [9] (Table 3) came out at 0.75 nM; in [9] (Table 5), 0.75 nM; in data set [9] (Table 6), 0.75 nM; in data set [10] (Table 3), 0.14 nM; in [10] (Table 5), 0.14 nM; in data set [10] (Table 6), 0.14 nM. Also, the negative logarithm of the EC50 (pEC50) in data set [9] (read-out: EC50 in mouse macrophages) was 9.12; in [10] (read-out: EC50 in human THP-1 cells), 9.85. Also, the “efficacy relative to that of diprovocim-1 in human THP-1 cells” value in [10] is reported as 100%. Moreover, the “Efficacy (magnitude) … (100%), THP-1” value was found to be 100% in data set [10] (Table 3, in parentheses); 100% in data set [10] (Table 5, in parentheses); 100% in data set [10] (Table 6, in parentheses). In addition, the “in vivo cytotoxicity against OVA peptide-loaded C57BL/6J splenocytes (CTL, FIG. 2A)” value in data set [3] is “induced strong in vivo cytotoxicity”. The “Resistance to B16-OVA melanoma (FIG. 2B)” value in [5] is on record as “notably enhanced”. The “OVA-specific circulating antibodies of different subtypes by ELISA (FIGS. 3A-3C)” value in data set [7] was “strong responses”. The “adjuvant activity in mice (CD4- and CD-8-dependent responses)” value in data set [8] is “matching or surpassing the activity of diprovocim-1”.
